Results from DBAASP.
In brackets after ≈: the same amount, converted by molar mass. Several values for one entry are separate records, joined by “and”; a condition that tells them apart may be missing. Equal entries are not always repeated. One block for each compound: values may come before it.

Experiments:
Assay in all cases: ≥ marks a high value that may be exact or a test limit, other limits are often not marked, values filed in µg/mL are converted to µM
[1] = system: Pseudomonas aeruginosa 1570
[2] = system: Pseudomonas aeruginosa 5167
[3] = system: Pseudomonas aeruginosa 8600
[4] = system: Pseudomonas aeruginosa ATCC 27853
[5] = system: Bacillus cereus ATCC 14579
[6] = system: Bacillus subtilis ATCC 23857
[7] = system: Candida albicans ATCC 90028
[8] = system: Cryptococcus neoformans ATCC 28957
[9] = system: Escherichia coli ATCC 25922
[10] = system: Fusarium oxysporum f.sp. vasinfectum
[11] = system: Fusarium oxysporum
[12] = system: Fusarium solani
[13] = system: Pectobacterium carotovorum
[14] = system: Pseudomonas syringae pv. tabaci
[15] = system: Ramulariopsis gossypii
[16] = system: Rhizoctonia solani
[17] = system: Staphylococcus aureus ATCC 25923
[18] = system: Trichoderma asperellum
[19] = system: Xanthomonas campestris pv. citri
[20] = system: Aeromonas hydrophila
[21] = system: Escherichia coli
[22] = system: Staphylococcus aureus
[23] = system: Streptococcus pyogenes
[24] = system: Vibrio alginolyticus
[25] = system: Vibrio fluvialis
[26] = system: Vibrio parahaemolyticus
[27] = system: Acinetobacter baumannii KCTC 2508
[28] = system: Klebsiella pneumoniae KCTC 2208
[29] = system: Candida albicans KCTC 7270
[30] = system: Escherichia coli CCARM 1229
[31] = system: Escherichia coli CCARM 1238
[32] = system: Pseudomonas aeruginosa 4007
[33] = system: Pseudomonas aeruginosa 4891
[34] = system: Staphylococcus aureus CCARM 3090
[35] = system: Staphylococcus aureus CCARM 3518
[36] = system: Trichosporon beigelii KCTC 7707
[37] = system: Streptococcus gordonii ATCC 10558
[38] = system: Streptococcus mutans GS-5
[39] = system: Streptococcus mutans UA159
[40] = system: Streptococcus sanguinis ATCC 49295
[41] = system: Candida albicans NCTC 3179
[42] = system: Klebsiella pneumoniae MTCC 443
[43] = system: Pseudomonas aeruginosa MTCC 2488
[44] = system: Staphylococcus aureus MTCC 96

Structure (SMILES): CC(C)C[C@H](NC(=O)[C@H](CC(C)C)NC(=O)[C@H](CCCCN)NC(=O)[C@H](CCCCN)NC(=O)[C@H](CC(C)C)NC(=O)[C@H](CC(C)C)NC(=O)[C@H](CCCCN)NC(=O)[C@H](C)NC(=O)[C@@H](N)Cc1ccccc1)C(N)=O [FAKLLKKLL]
MIC [1]: 21.1 µM (≈ 22.6 µg/mL) | MIC [2]: ≥ 59.6 µM | MIC [3]: 5.27 µM (≈ 5.65 µg/mL) | MIC [4]: 7.45 µM and 14.9 µM

Structure (SMILES): CSCC[C@H](NC(=O)[C@H](Cc1ccccc1)NC(=O)CNC(=O)[C@H](Cc1cnc[nH]1)NC(=O)[C@H](CC(C)C)NC(=O)[C@H](CO)NC(=O)CN)C(=O)N[C@@H](Cc1ccc(O)cc1)C(=O)N[C@@H](CCCCN)C(=O)N[C@@H](Cc1ccc(O)cc1)C(=O)N[C@@H](CC(C)C)C(=O)N[C@@H](CCCCN)C(=O)N[C@H](C(=O)N[C@@H](CC(C)C)C(=O)N[C@H](C(=O)N[C@@H](CC(C)C)C(=O)N[C@@H](CCCN=C(N)N)C(=O)N[C@@H](CC(C)C)C(=O)N[C@@H](Cc1ccc(O)cc1)C(N)=O)C(C)C)[C@@H](C)O [GSLHGFMYKYLKTLVLRLY]
MIC [5]: ≥ 64 µM | MIC [6]: 8 µM (≈ 18.4 µg/mL) | MIC [7]: 6.67 µM (≈ 15.4 µg/mL) | MIC [8]: 4 µM (≈ 9.21 µg/mL) | MIC [9]: 13.3 µM (≈ 30.7 µg/mL) | MIC [10]: 10.7 µM (≈ 24.6 µg/mL) | MIC [11]: 16 µM (≈ 36.8 µg/mL) | MIC [12]: 4 µM (≈ 9.21 µg/mL) | MIC [13]: 16 µM (≈ 36.8 µg/mL) | MIC [4]: 16 µM (≈ 36.8 µg/mL) | MIC [14]: ≥ 32 µM | MIC [15]: 2 µM (≈ 4.6 µg/mL) | MIC [16]: ≥ 32 µM | MIC [17]: 16 µM (≈ 36.8 µg/mL) | MIC [18]: 16 µM (≈ 36.8 µg/mL) | MIC [19]: 16 µM (≈ 36.8 µg/mL)

Structure (SMILES): CC(C)C[C@H](NC(=O)[C@H](CCCCN)NC(=O)[C@H](CCC(N)=O)NC(=O)[C@@H](NC(=O)[C@H](C)NC(=O)[C@H](CCC(=O)O)NC(=O)CNC(=O)CN)C(C)C)C(=O)N[C@H](C(=O)N[C@@H](CCCN=C(N)N)C(=O)N[C@@H](CCC(=O)O)C(=O)N[C@H](C(=O)N[C@@H](CCCCN)C(=O)N[C@@H](CC(=O)O)C(=O)NCC(=O)O)C(C)C)C(C)C [GGEAVQKLVREVKDG]
MIC [20]: ≥ 158 µM | MIC [21]: > 158 µM | MIC [22]: > 158 µM | MIC [23]: ≥ 158 µM | MIC [24]: ≥ 78.9 µM | MIC [25]: ≥ 78.9 µM | MIC [26]: ≥ 158 µM

Structure (SMILES): CC[C@H](C)[C@H](NC(=O)[C@@H]1CCCN1C(=O)CNC(=O)[C@H](CO)NC(=O)[C@H](CO)NC(=O)[C@@H](NC(=O)[C@H](C)NC(=O)[C@H](CCC(N)=O)NC(=O)[C@H](Cc1ccccc1)NC(=O)[C@H](CCCN=C(N)N)NC(=O)[C@H](CC(C)C)NC(=O)[C@H](CC(C)C)NC(=O)[C@H](CC(C)C)NC(=O)[C@H](CCC(=O)O)NC(=O)[C@H](CCC(=O)O)NC(=O)[C@H](CO)NC(=O)[C@H](C)N)[C@@H](C)O)C(=O)N[C@@H](CC(C)C)C(=O)N[C@@H](CCCN=C(N)N)C(=O)N[C@@H](CCC(=O)O)C(=O)N[C@@H](CCC(=O)O)C(=O)N[C@@H](Cc1ccccc1)C(=O)N[C@@H](CCC(=O)O)C(=O)O [ASEELLLRFQATSSGPILREEFE]
MIC [41]: ≥ 95.3 µM | MIC [9]: > 95.3 µM | MIC [17]: > 95.3 µM

Continued, values first:

MIC [27]: 4 µM (≈ 12 µg/mL) | MIC [28]: 8 µM (≈ 23.9 µg/mL) | MIC [4]: 1 µM (≈ 2.99 µg/mL)
Structure (SMILES): CC[C@H](C)[C@H](N)C(=O)N[C@@H](C)C(=O)N[C@@H](CCCN=C(N)N)C(=O)N[C@@H](CCCN=C(N)N)C(=O)N[C@@H](C)C(=O)N[C@@H](CC(C)C)C(=O)N[C@@H](CCCCN)C(=O)N[C@@H](CCCCN)C(=O)N[C@@H](C)C(=O)N[C@@H](CCCCN)C(=O)N[C@@H](CCCN=C(N)N)C(=O)N[C@@H](C)C(=O)N[C@@H](CCCN=C(N)N)C(=O)N[C@@H](Cc1cnc[nH]1)C(=O)N[C@H](C(=O)N[C@H](C(=O)N1CCC[C@H]1C(=O)N[C@@H](CCC(N)=O)C(=O)N[C@@H](CS)C(=O)N[C@@H](CCCCN)C(=O)N[C@@H](CCCCN)C(=O)N[C@@H](Cc1ccccc1)C(=O)NCC(=O)N[C@@H](CCCN=C(N)N)C(=O)N[C@@H](CCCN=C(N)N)C(N)=O)[C@@H](C)CC)[C@@H](C)O [IARRALKKAKRARHTIPQCKKFGRR]

MIC [29]: 16 µM (≈ 33.9 µg/mL) | MIC [30]: 2 µM (≈ 4.24 µg/mL) | MIC [31]: 2 µM (≈ 4.24 µg/mL) | MIC [32]: 4 µM (≈ 8.48 µg/mL) | MIC [33]: 4 µM (≈ 8.48 µg/mL) | MIC [34]: 4 µM (≈ 8.48 µg/mL) | MIC [35]: 4 µM (≈ 8.48 µg/mL) | MIC [36]: 16 µM (≈ 33.9 µg/mL)
Structure (SMILES): CC[C@H](C)[C@H](NC(=O)[C@H](CCCCN)NC(=O)[C@H](CCCCN)NC(=O)[C@@H](NC(=O)[C@H](C)NC(=O)[C@H](CCC(=O)O)NC(=O)[C@H](Cc1cnc[nH]1)NC(=O)[C@@H](NC(=O)[C@H](CCCCN)NC(=O)[C@H](CCC(N)=O)NC(=O)[C@H](Cc1ccccc1)NC(=O)[C@@H](NC(=O)[C@H](CCCCN)NC(=O)[C@H](CCCCN)NC(=O)[C@H](CC(C)C)NC(=O)[C@H](C)NC(=O)[C@H](CC(N)=O)NC(=O)[C@@H](N)CC(C)C)C(C)C)[C@@H](C)CC)[C@@H](C)CC)C(N)=O [LNALKKVFQKIHEAIKKI]

MIC [37]: ≥ 224 µM | MIC [38]: ≥ 224 µM | MIC [39]: ≥ 224 µM | MIC [40]: ≥ 224 µM
Structure (SMILES): CC(C)C[C@H](NC(=O)[C@H](CCCN=C(N)N)NC(=O)[C@H](Cc1ccccc1)NC(=O)[C@H](Cc1ccccc1)NC(=O)[C@@H](NC(=O)[C@H](CO)NC(=O)[C@@H](N)CC(C)C)[C@@H](C)O)C(=O)N[C@@H](Cc1ccccc1)C(=O)N[C@@H](CC(N)=O)C(=O)O [LSTFFRLFN]

MIC [42]: ≥ 50 µM | MIC [43]: 30 µM (≈ 27.8 µg/mL) | MIC [44]: ≥ 80 µM
Structure (SMILES): CC(C)C[C@H](NC(=O)[C@H](CCCCN)NC(=O)[C@H](CCCCN)NC(=O)[C@H](CC(C)C)NC(=O)[C@H](Cc1c[nH]c2ccccc12)NC(=O)[C@H](CCCCN)NC(=O)[C@@H](N)CC(C)C)C(N)=O [LKWLKKL]
